This note sets out measurements from patent US6521590B1, “Biocidal proteins” (priority 1991, dated 2003).

Where no end group is shown, it is not given here.

The test system of series [1] is B cinerea. In words: Effect of ions on antifungal activity (synthetic growth medium). It is filed as cell-based, Botrytis cinerea. Conditions: for increase of the IC50 values with CaCl2 at 1 mM: reference medium + 1 mM CaCl2; for effect of KCl at 10 mM on the dose-response curves: reference medium + 10 mM KCl; for increase of the IC50 values with KCl at 50 mM: reference medium + 50 mM KCl.

Series [2] deals with Phytophthora infestans. It is filed as cell-based.
The nature of series [3]: Chitin micro-column binding. Conditions: washed at pH 7, desorbed with 100 mM acetic acid (pH 2.8), SDS-PAGE.
The subject of series [4] is Colletotrichum lindemuthianum MUCL 9577. It is filed as cell-based.
For series [5], the system named is Cercospora beticola strain K897. It is filed as cell-based.
In series [6] the test system is Botrytis cinerea MUCL 30158. It is filed as cell-based.
The subject of series [7] is Fusarium oxysporum f.sp. lycopersici MUCL 909. It counts as cell-based.
The test system of series [8] is Alternaria brassicola MUCL 20297. It counts as cell-based.
The subject of series [9] is Trichoderma viride (K1127). It counts as cell-based.
Series [10] concerns Phoma betae MUCL 9916. It counts as cell-based.
Series [11] relates to Penicillium digitatum (K0879). It counts as cell-based.
For series [12], the system named is Verticillium dahliae MUCL 19210. It counts as cell-based.
Series [13] has as its system Pyricularia oryzae MUCL 30166. It counts as cell-based.
Series [14] has as its system Nectria haematococca Collection Van Etten 160-2-2. It is filed as cell-based.
Series [15] relates to Rhizoctonia solani CBS 207-84. It counts as cell-based.
Series [16] concerns plant pathogenic fungi. It counts as cell-based.
Series [17] has as its system Fusarium oxysporum f.sp. pisi IMI 236441. It counts as cell-based.
Series [18] has as its system Saccharomyces cerevisiae JRY188. To be noted: S cerevisiae.
Method: Routinely, tests were performed with 20 μl of a (filter-sterilized) test solution and 80 μl of a fungal spore suspension (2×10^4 spores/ml) or mycelium fragments in either half strength potato dextrose broth (medium A) or half strength potato dextrose broth with CaCl2 and KCl added to final concentrations of 1 mM and 50 mM respectively (medium B). For experiments on the antagonistic effect of cations, a synthetic growth medium was used instead of Potato Dextrose Broth. […] Control microcultures contained 20 μl of sterile distilled water and 80 μl of the fungal spore suspension.
Unless otherwise stated the test organism was Fusarium culmorum (strain IMI 180420) and incubation was carried out at 25° C. for 48 hours. Percent growth inhibition is defined as 100 times the ratio of the corrected absorbance of the control microculture minus the corrected absorbance of the test microculture over the corrected absorbance at 595 nm of the control microculture. The corrected absorbance values equal the absorbance at 595 nm of the culture measured after 48 hours minus the absorbance at 595 nm measured after 30 min. […] The antifungal activity (units per ml) is calculated as 50 times the dilution factor of a test solution at which 50% growth inhibition is obtained under the given assay conditions.
Antibacterial activity was measured microspectrophotometrically as follows. […]
Series [19] relates to Ascochyta pisi MUCL 30164. It is filed as cell-based.
Series [20] concerns Fusarium culmorum IMI 180420. It counts as cell-based.
For series [21], the system named is Fusarium culmorum. It is filed as physicochemical. On the procedure:
Tests for antifungal activity were performed with 20 μl samples diluted five-fold with growth medium containing Fusarium culmorum spores, according to the assay method given in Example 1. untreated control samples consisted of the test proteins at 500 μg/ml in 10 mM sodium phosphat buffer (pH 7). For digestions, different proteases were added at 100 μg/ml and incubated at 37° C. for 16 hours. Heat stability tests were performed by heating aliquots of the test proteins for 10 minutes at different temperatures up to 100° C. pH stability was tested by incubation of test proteins for 1 hour in either 20 mM glycine-HCl (pH 2) or glycine-NaOH (pH 11) and subsequent dialysis for 16 hours against 10 mM sodium phosphate buffer (pH 7) using benzoylated cellulose tubing. Reduction of dishulphide bridges was done by addition of DTE at 30 mM and Tris-HCl (pH 8.6) at 300 mM. The reagents were removed by reversed-phase chromatography. For digestions, different proteases were added at 200 μg/ml and incubated at 37° C. for 3 hours.

Series [22] concerns Pyrenophora tritici-repentis MUCL 30217. It is filed as cell-based.
The test system of series [23] is Verticillium albo-atrum (K0937). It counts as cell-based.
Series [24] deals with Venturia inaegualis MUCL 15927. It counts as cell-based.

With “Ac-AMP1: Antimicrobial protein from Amaranthus caudatus seeds, 29 residues, dimer of two identical 3 kDa subunits (SEQ ID NO: 5) (VGECVRGRCPSGMCCSQFGYCGKGPKYCG; cysteine pairing not given here; also: dimer of two identical subunits)”, in [1], the “increase of the IC50 values with CaCl2 at 1 mM” value is “five to six-fold”, the “effect of KCl at 10 mM on the dose-response curves” value was “did not significantly affect the dose-response curves” and the “increase of the IC50 values with KCl at 50 mM” value is recorded as “about three-fold”. Further, the “IC50” value in [2] stood at 12 µg/mL. Also, the affinity toward chitin entry in series [3] is listed as “exhibit affinity toward chitin”.

As for “Ca-AMP1: Antimicrobial protein purified from seeds of Capsicum annuum (SEQ ID NO: 15) (QEQCGNQAGGRACANRLCCSQYGYCGSTRAYCGVGCQSNCGR)”, the “IC50 (μg/ml) Medium A” value was found to be 50 µg/mL in series [4]; 300 µg/mL in [7]; 200 µg/mL in series [9]; 300 µg/mL in series [10]; 6 µg/mL in series [12]; 5 µg/mL in series [13]. The “IC50 (μg/ml) Medium A” value in series [14] was 4 µg/mL; in series [15], 8 µg/mL; in series [17], greater than 500 µg/mL; in series [20], 4 µg/mL; in series [22], 70 µg/mL. In addition, the “IC50 (μg/ml) Medium B” value in [4] was greater than 500 µg/mL; in [5], 200 µg/mL; in [6] it was greater than 500 µg/mL; in [7], greater than 500 µg/mL; in series [8], greater than 500 µg/mL; in series [9] it was greater than 500 µg/mL. The “IC50 (μg/ml) Medium B” value in series [10], in [11], in [12], in series [13], in series [14] and in series [15] was greater than 500 µg/mL throughout. For the same substance, the “IC50 (μg/ml) Medium B” value in series [17], in series [19], in [20], in series [22] and in series [23] was greater than 500 µg/mL each time. In series [3], the affinity toward chitin entry was “exhibits affinity to chitin”. For the same substance, the “number of pathogenic fungi with IC50 value below 10 μg/ml” value in [16] is recorded as 10 of the fungi. Moreover, the “IC50” value in [18] was found to be 30 µg/mL. For the same substance, the “morphological changes in partially inhibited fungal spores” value in series [20] is listed as “severe branching of the emerging hyphal tips”. In series [21] (chymotrypsin digestion, 37° C.), the “antifungal activity after chymotrypsin treatment” value is on record as “no affect on activity”. In addition, the “antifungal activity after heat treatment” value in series [21] (heating for 10 minutes at different temperatures up to 100° C.) was “resistant to heat treatment at up to 80 °C for 10 minutes”. In addition, the “reduction of antifungal activity after pronase E treatment” value in [21] (pronase E digestion, 37° C.) was “at least 10 fold”. Further, the “reduction of antifungal activity after proteinase K treatment” value in [21] (proteinase K digestion, 37° C.) is “at least 10 fold”. The “antifungal activity after reduction of disulphide bonds” value in series [21] (reduction by DTE / dithiothreitol) is listed as “completely abolished the antifungal activity”. The “reduction of antifungal activity after trypsin treatment” value in [21] (trypsin digestion, 37° C.) turned out to be 2 fold.

Regarding “Ac-AMP2: Antimicrobial protein from Amaranthus caudatus seeds, 30 residues, Ac-AMP1 plus a carboxyl-terminal arginine (SEQ ID NO: 6) (VGECVRGRCPSGMCCSQFGYCGKGPKYCGR; not fully specified; cysteine pairing not given here)”, the “IC50” value came to 8 µg/mL in [4]; 0.8 µg/mL in [5]; 8 µg/mL in series [6]; 4 µg/mL in series [8]; 5 µg/mL in [12]; 3 µg/mL in series [24]. Moreover, the “IC50” value in series [19] was 8 µg/mL. Further, in series [1], the “increase of the IC50 values with CaCl2 at 1 mM” value is on record as “five to six-fold”. For the same substance, the “effect of KCl at 10 mM on the dose-response curves” value in [1] is “did not significantly affect the dose-response curves”. For the same substance, the “increase of the IC50 values with KCl at 50 mM” value in [1] is given as “about three-fold”. Further, in series [3], the affinity toward chitin entry is given as “exhibit affinity toward chitin”.
